Where a name gives a salt, the structure may show the parent alone.

Experiment [1] relates to Abca4−/− mice. In words: Bisretinoid accumulation in eyes of Abca4−/− mice. The format is in vivo, mouse. The note with it: Abca4−/− mice starting at 17 weeks old, 25 mg/kg for 12 weeks. The method, then: (§1) Abca4−/− mice have A2E levels in the ˜15-19 pmoles/eye range at 17 weeks old. Mice, starting at 17 weeks old, were treated with 25 mg/kg of Compound 81 for 12 weeks.

The target in experiment [2] is serum RBP4 (Mus musculus (Mouse), UniProt Q00724). In words: Serum RBP4 levels in Abca4−/− mice. The experiment is classed as in vivo. The note with it: 25 mg/kg for 12 weeks. The procedure:
as §1

For experiment [3], the system named is serum RBP4 and retinol. As to conditions: in vivo; cited from earlier work.
Experiment [4] concerns RBP4-TTR interaction. The note with it: cited from earlier work.

With `CC(=O)N1CCc2c(C(=O)N3CCC(c4ccc(F)c(F)c4C(F)(F)F)CC3)n[nH]c2C1` [Compound 81, 1-(3-(4-(3,4-Difluoro-2-(trifluoromethyl)phenyl)piperidine-1-carbonyl)-4,5-dihydro-1H-pyrazolo[3,4-c]pyridin-6 (7H)-yl)ethanone], in experiment [1], the “bisretinoid accumulation in Abca4−/− mouse model” value (from here on “bisretinoid accumulation”) is “inhibited bisretinoid accumulation”. In experiment [2], the “serum RBP4 reduction in treated mice” value was “significant serum RBP4 reduction”.
As to `CC1=C(/C=C/C(C)=C/C=C/C(C)=C/C(=O)Nc2ccc(O)cc2)C(C)(C)CCC1` [fenretinide, N-(4-hydroxy-phenyl)retinamide], in experiment [3], the “ocular all-trans retinol uptake and visual cycle” value was “inhibit ocular all-trans retinol uptake and slow down the visual cycle”. Moreover, the “disruption of RBP4-TTR interaction” value in experiment [4] was “disrupt the RBP4-TTR interaction”.
Regarding `O=C(c1n[nH]c2c1CNCC2)N1CCC(c2ccc(F)c(F)c2C(F)(F)F)CC1` [Compound 36, (4-(3,4-Difluoro-2-(trifluoromethyl)phenyl)piperidin-1-yl)(4,5,6,7-tetrahydro-1H-pyrazolo[4,3-c]pyridin-3-yl)methanone Trifluoroacetic Acid Salt], the “bisretinoid accumulation” value in experiment [1] (present-tense example) was “inhibit bisretinoid accumulation”. In addition, in experiment [2] (present-tense example), the “serum RBP4 reduction in treated mice” value was “significant serum RBP4 reduction”.
On the same counts, the results for `O=C(c1n[nH]c2c1CCNC2)N1CCC(c2cccc(F)c2C(F)(F)F)CC1` [Compound 30, (4-(3-Fluoro-2-(trifluoromethyl)phenyl)piperidin-1-yl) (4,5,6,7-tetrahydro-1H-pyrazolo[3,4-c]pyridin-3-yl)methanone Hydrochloride] are “inhibit bisretinoid accumulation” and “significant serum RBP4 reduction”.
Consider `O=C(c1n[nH]c2c1CCNC2)N1CCC(c2ccc(F)c(F)c2C(F)(F)F)CC1` [Compound 34], for which, in experiment [1] (present-tense example), the “bisretinoid accumulation” value was “inhibit bisretinoid accumulation”. Moreover, the “serum RBP4 reduction in treated mice” value in experiment [2] (present-tense example) was “significant serum RBP4 reduction”.
The matching figures for `O=C(c1n[nH]c2c1CNC2)N1CCC(c2ccc(F)c(F)c2C(F)(F)F)CC1` [Compound 38, (4-(3,4-Difluoro-2-(trifluoromethyl)phenyl)piperidin-1-yl)(1,4,5,6-tetrahydropyrrolo[3,4-c]pyrazol-3-yl)methanone Hydrochloride]: “inhibit bisretinoid accumulation” and “significant serum RBP4 reduction”.
Consider `O=C(c1n[nH]c2c1CCNC2)N1CCC(c2cccc(F)c2Cl)CC1` [Compound 40, (4-(2-Chloro-3-fluorophenyl)piperidin-1-yl) (4,5,6,7-tetrahydro-1H-pyrazolo[3,4-c]pyridin-3-yl)methanone Hydrochloride], for which the “bisretinoid accumulation” value in experiment [1] (present-tense example) is listed as “inhibit bisretinoid accumulation”. For the same compound, the “serum RBP4 reduction in treated mice” value in experiment [2] (present-tense example) is “significant serum RBP4 reduction”.
On the same counts, the results for `O=C(c1n[nH]c2c1CNCC2)N1CCC(c2cccc(F)c2Cl)CC1` [Compound 42, (4-(2-Chloro-3-fluorophenyl)piperidin-1-yl)(4,5,6,7-tetrahydro-1H-pyrazolo[4,3-c]pyridin-3-yl)methanone Hydrochloride] are “inhibit bisretinoid accumulation” and “significant serum RBP4 reduction”.

These data come from US11649240B2, “Substituted 4-phenylpiperidines, their preparation and use” (The Trustees of Columbia University in the City of New York, priority 2014, dated 2023).
